Measured values from US20250059165A1, “PIPERIDINYLPYRIDINYLCARBONITRILE DERIVATIVES AS INHIBITORS OF GLUTAMINYL-PEPTIDE CYCLOTRANSFERASE AND GLUTAMINYL-PEPTIDE CYCLOTRANSFERASE LIKE PROTEIN” (Boehringer Ingelheim International GmbH, priority 2023, published 2025).

Tests used:
[1] = system: SIRPα signalling induced by A549 cells; assay: Assay B: SIRPα signalling assay using A549 cells; type: cell-based; conditions: Homo sapiens, 48 h compound incubation, Jurkat PathHunter SIRPαV1 reporter cells, read-out: Inhibition of SIRPα signalling induced by A549 cells: IC50
Procedure: (§1) Two cell types are independently used: the Raji cell line (lymphoblast-like human cell line derived from B lymphocytes from a Burkitt's lymphoma patient in 1963) and A549 cells (adenocarcinomic human alveolar basal epithelial cells).
(§2) Test compounds were dissolved in 100% DMSO and serially diluted into a white 384-well microtiter cell culture plate (PerkinElmer #60076780 in case of Raji assay; PDL-coated plates Greiner #781945 in case of A549 assay). 5000 Raji cells (ATCC #CC86) or 5000 A549 cells (ATCC #CCL-185) in Assay Complete Cell Plating reagent 30 (DiscoverX 93-0563R30B) were added per well. The assay plate was incubated for 48 h at 37° C., 95% humidity and 5% CO2. 15000 reporter cells (Jurkat PathHunter SIRPαV1, DiscoverX #93-1135C19) were added to each well, and the plate was incubated for 5 h at 37° C., 95% humidity and 5% CO2. Bioassay reagent 1 of the PathHunter Bioassay detection kit (DiscoverX 93-0001) was added to each well of the plate using a multichannel pipette followed by a 15 min incubation at room temperature. Afterwards bioassay reagent 2 was added followed by […] incubation at room temperature (incubation in the dark). The analysis of the data was performed using the luminescence signal generated by beta-galactosidase in the PathHunter reporter cell line. The luminescence measurement was done using a Pherastar Multi-Mode Reader. Dose-response curves & IC50 data were calculated with 4-parameter sigmoidal dose response formula.

[2] = Assay C: permeability in CACO-2 cells; type: in vitro ADME; conditions: human, pH 7.2; for efflux ratio: Caco-2, Permeability B-A/Permeability A-B; for Papp A→B: Caco-2, apical to basolateral
Procedure: Caco-2 cells (1−2×10^5 cells/1 cm^2 area) are seeded on filter inserts (Costar transwell polycarbonate or PET filters, 0.4 µm pore size) and cultured (DMEM) for 10 to 25 days. Compounds are dissolved in appropriate solvent (like DMSO, 1-20 mM stock solutions). […] The transport solution (TL) is applied to the apical or basolateral donor side for measuring A-B or B-A permeability (3 filter replicates), respectively. Samples are collected at the start and end of experiment from the donor and at various time intervals for up to 2 hours also from the receiver side for concentration measurement by HPLC-MS/MS or scintillation counting. Sampled receiver volumes are replaced with fresh receiver solution. Efflux Ratio (ER)=Permeability B-A/Permeability A-B

[3] = system: SIRPα signalling induced by Raji cells; assay: Assay B: SIRPα signalling assay using Raji cells; type: cell-based; conditions: Homo sapiens, 48 h compound incubation, Jurkat PathHunter SIRPαV1 reporter cells, read-out: Inhibition of SIRPα signalling induced by Raji cells: IC50
Procedure: as §1, §2

[4] = molecular target: T1, QPCT (Homo sapiens, UniProt Q16769); assay: Assay A: biochemical QPCT activity assay (MALDI-TOF MS, CD47 peptide substrate); conditions: 0.5 nM enzyme, 20 μM CD47 peptide substrate; read-out: Inhibition of QPCT: IC50
T1 construct: purchased Origine (OriGene) TP700028
Procedure: (§3) QPCT or QPCTL dependent conversion of N-terminal glutamine to pyroglutamate of CD47 was monitored via MALDI-TOF MS. Test compounds were dissolved in 100% DMSO and serially diluted into clear 1,536-well microtiter plates. […] The plates were incubated for 10 min in a humidified incubator at 24° C. Subsequently, 2.5 μL of CD47 peptide substrate surrogate (^19[…]^33) was added to each well (final concentration: 10 μM for QPCTL/20 μM for QPCT). […] The plates were sealed with an adhesive foil, mixed for 30 s at 1,000 rpm and stored at room temperature until preparation of the MALDI target plates. MALDI target plates were prepared as described previously. […] QPCT or QPCTL activity was monitored by calculating the ratio between product and internal standard signals followed by normalization to high (100% activity) and low (0% activity) controls. Determination of compound potencies was obtained by fitting the dose-response data to a four-parameter logistical equation.

[5] = molecular target: T2, QPCTL (Homo sapiens, UniProt Q9NXS2); assay: Assay A: biochemical QPCTL activity assay (MALDI-TOF MS, CD47 peptide substrate); conditions: 0.5 nM enzyme, 10 μM CD47 peptide substrate; read-out: Inhibition of QPCTL: IC50
T2 construct: made in house
Procedure: as §3

T2 sequence (Q9NXS2 whole entry): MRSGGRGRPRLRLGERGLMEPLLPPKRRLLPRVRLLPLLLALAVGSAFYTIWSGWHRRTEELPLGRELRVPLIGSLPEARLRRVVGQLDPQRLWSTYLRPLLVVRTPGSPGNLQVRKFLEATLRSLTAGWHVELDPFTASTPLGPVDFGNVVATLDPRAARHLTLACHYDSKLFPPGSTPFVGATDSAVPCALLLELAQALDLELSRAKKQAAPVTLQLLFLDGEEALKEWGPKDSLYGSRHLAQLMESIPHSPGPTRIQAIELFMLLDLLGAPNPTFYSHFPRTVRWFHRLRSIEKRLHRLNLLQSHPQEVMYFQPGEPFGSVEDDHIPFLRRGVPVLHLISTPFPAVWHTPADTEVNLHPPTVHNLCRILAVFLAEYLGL
T1 sequence (Q16769 29-361): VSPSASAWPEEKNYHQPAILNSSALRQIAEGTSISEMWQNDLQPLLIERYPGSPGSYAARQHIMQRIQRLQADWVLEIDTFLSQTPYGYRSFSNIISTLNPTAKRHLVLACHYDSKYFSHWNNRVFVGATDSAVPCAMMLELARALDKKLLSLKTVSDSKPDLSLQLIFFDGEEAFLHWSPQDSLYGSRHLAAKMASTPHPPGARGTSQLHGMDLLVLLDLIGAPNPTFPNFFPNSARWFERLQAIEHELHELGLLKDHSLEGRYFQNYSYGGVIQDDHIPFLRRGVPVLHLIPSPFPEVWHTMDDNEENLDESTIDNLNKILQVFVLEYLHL

IC50 [1] | efflux ratio [2] | Papp A→B [2] | IC50 [3] | IC50 [4] | IC50 [5] | SMILES
41 nM | 6.3 | 8.7 ×10⁻⁶ cm/s | 77 nM | 3 nM | 2 nM | Cn1cnnc1C1(F)CCN(c2c(C#N)cc(C(C)(C)O)nc2-c2ccc(F)nc2)CC1 [Example 1]
40 nM | 1.3 | 47 ×10⁻⁶ cm/s | 131 nM | 4 nM | 1 nM | Cn1cnnc1C1(F)CCN(c2c(C#N)cc(C3CC3(F)F)nc2-c2ccc(F)nc2)CC1 (stereo not shown) [Example 3]
60 nM | 1.6 | 27 ×10⁻⁶ cm/s | 617 nM | 9 nM | 4 nM | COc1cc(C#N)c(N2CCC(F)(c3nncn3C)CC2)c(-c2ccc(F)nc2)n1 [Example 5]
200 nM | 5.5 | 15 ×10⁻⁶ cm/s | 568 nM | 12 nM | 8 nM | COc1cnc(-c2ccc(F)nc2)c(N2CCC(F)(c3nncn3C)CC2)c1C#N [Example 7]
39 nM | 4.5 | 5.8 ×10⁻⁶ cm/s | 103 nM | 4 nM | 2 nM | Cn1cnnc1C1(F)CCN(c2c(C#N)ccnc2-c2cnc(F)c(N)c2)CC1 [Example 9]
283 nM | 13.1 | 1.6 ×10⁻⁶ cm/s | 536 nM | 30 nM | 8 nM | COCCOc1ncc(-c2nccc(C#N)c2N2CCC(F)(c3nncn3C)CC2)cn1 [Example 10]
419 nM | 5 | 13 ×10⁻⁶ cm/s | 1170 nM | 48 nM | 13 nM | Cn1cnnc1C1(F)CCN(c2c(C#N)ccnc2-c2cncc(-c3ncco3)c2)CC1 [Example 11]
45 nM | 9.9 | 9.4 ×10⁻⁶ cm/s | 150 nM | 4 nM | 3 nM | Cn1cnnc1C1(F)CCN(c2c(C#N)ccnc2-c2cnc3nn(Cc4ccccc4)nc3c2)CC1 [Example 12]
358 nM | 9 | 6.2 ×10⁻⁶ cm/s | 596 nM | 24 nM | 8 nM | Cn1cnnc1C1(F)CCN(c2c(C#N)ccnc2-c2cnc3nn(Cc4ccc(C(F)(F)F)nc4)nc3c2)CC1 [Example 13]
202 nM | 32.8 | 0.7 ×10⁻⁶ cm/s | 673 nM | 11 nM | 3 nM | Cn1cnnc1C1(F)CCN(c2c(C#N)ccnc2-c2cnc3nnn(Cc4ccc(C(F)(F)F)nc4)c3c2)CC1 [Example 14]
410 nM | 1.6 | 47 ×10⁻⁶ cm/s | 296 nM | 58 nM | 15 nM | Cn1cnnc1C1(F)CCN(c2c(C#N)cc(C(F)(F)F)nc2-c2cnc3occc3c2)CC1 [Example 15]
71 nM |  |  | 274 nM | 5 nM | 5 nM | Cn1cnnc1C1(F)CCN(c2c(C#N)ccnc2-c2cnn3nc(-c4cccnc4Cl)ccc23)CC1 [Example 17]
16 nM |  |  | 44 nM | 1 nM | 2 nM | Cn1cnnc1C1(F)CCN(c2c(C#N)ccnc2-c2cnn3nc(-c4cc(Cl)ccc4C#N)ccc23)CC1 [Example 18]
29 nM |  |  | 83 nM | 3 nM | 2 nM | Cn1cnnc1C1(F)CCN(c2c(C#N)ccnc2-c2cnn3nc(-c4ccc(Cl)cc4Cl)ccc23)CC1 [Example 20]
11 nM |  |  | 16 nM | 1 nM | 2 nM | Cn1cnnc1C1(F)CCN(c2c(C#N)ccnc2-c2cnn3nc(-c4c(F)cccc4F)ccc23)CC1 [Example 21]
51 nM |  |  | 117 nM | 2 nM | 2 nM | Cn1cnnc1C1(F)CCN(c2c(C#N)ccnc2-c2cnn3nc(-c4ccccc4C#N)ccc23)CC1 [Example 22]
46 nM |  |  | 158 nM | 4 nM | 4 nM | COc1ccc(-c2ccc3c(-c4nccc(C#N)c4N4CCC(F)(c5nncn5C)CC4)cnn3n2)c(F)c1 [Example 23]
184 nM | 4.6 | 16 ×10⁻⁶ cm/s | 981 nM | 8 nM | 14 nM | Cc1noc(C)c1-c1ccc2c(-c3nccc(C#N)c3N3CCC(F)(c4nncn4C)CC3)cnn2n1 [Example 24]
78 nM | 7.7 | 5.3 ×10⁻⁶ cm/s | 150 nM | 6 nM | 1 nM | Cn1cc(-c2ccc3c(-c4nccc(C#N)c4N4CCC(F)(c5nncn5C)CC4)cnn3n2)cn1 [Example 25]
101 nM | 11.5 | 7.2 ×10⁻⁶ cm/s | 148 nM | 2 nM | 3 nM | Cn1cnnc1C1(F)CCN(c2c(C#N)ccnc2-c2cnn3nc(-c4cscc4C#N)ccc23)CC1 [Example 26]
52 nM | 2.2 | 16 ×10⁻⁶ cm/s | 106 nM | 3 nM | 4 nM | Cn1cnnc1C1(F)CCN(c2c(C#N)ccnc2-c2cnn3nc(-c4ccc(Cl)cc4)ccc23)CC1 [Example 27]
27 nM | 1.7 | 39 ×10⁻⁶ cm/s | 64 nM | 1 nM | 2 nM | Cn1cnnc1C1(F)CCN(c2c(C#N)ccnc2-c2cnn3nc(-c4ccccc4Cl)ccc23)CC1 [Example 29]
17 nM | 0.7 | 46 ×10⁻⁶ cm/s | 87 nM | 1 nM | 2 nM | CC(C)c1ccccc1-c1ccc2c(-c3nccc(C#N)c3N3CCC(F)(c4nncn4C)CC3)cnn2n1 [Example 30]
31 nM | 1.2 | 54 ×10⁻⁶ cm/s | 54 nM | 3 nM | 3 nM | Cn1cnnc1C1(F)CCN(c2c(C#N)ccnc2-c2cnn3nc(-c4ccccc4F)ccc23)CC1 [Example 31]

SMILES | IC50 [1] | efflux ratio [2] | Papp A→B [2] | IC50 [3] | IC50 [4] | IC50 [5]
Cn1cnnc1C1(F)CCN(c2c(C#N)cc(C(C)(C)O)nc2-c2cnc3nn(C(C)(C)C)c(Cl)c3c2)CC1 [Example 2] | 40 nM |  | 4.5 ×10⁻⁶ cm/s | 20 nM |  | 
Cn1cnnc1C1(F)CCN(c2c(C#N)cc(C3CC3(F)F)nc2-c2cnc3nn(C(C)(C)C)cc3c2)CC1 (stereo not shown) [Example 4] | 17 nM |  | 8.8 ×10⁻⁶ cm/s | 15 nM |  | 
Cn1cnnc1C1(F)CCN(c2c(C#N)cc(C(F)(F)F)nc2-c2cnc3nc(C(C)(C)C)oc3c2)CC1 [Example 16] | 32 nM |  | 33 ×10⁻⁶ cm/s | 27 nM |  | 
Cc1ccccc1-c1ccc2c(-c3nccc(C#N)c3N3CCC(F)(c4nncn4C)CC3)cnn2n1 [Example 19] | 6 nM |  |  | 20 nM |  | 
Cn1cnnc1C1(F)CCN(c2c(C#N)ccnc2-c2cnn3nc(-c4cccc(Cl)c4)ccc23)CC1 [Example 28] | 53 nM |  | 28 ×10⁻⁶ cm/s | 70 nM |  | 
Cc1ccc(-c2ccc3c(-c4nccc(C#N)c4N4CCC(F)(c5nncn5C)CC4)cnn3n2)c(C)c1 [Example 32] | 21 nM |  | 60 ×10⁻⁶ cm/s | 72 nM |  | 
Cn1cnnc1C1CCN(c2ncccc2-c2ccc(F)nc2)CC1 [SEN177, reference compound] | 214 nM |  |  | 1360 nM |  | 
